Measured values as given in patent US9085550B2, “Ligands for estrogen related receptors and methods for synthesis of said ligands” (CITY OF HOPE, priority 2005, dated 2015).

Columns and labels:
[1] = target: T1, human ERβ (Homo sapiens, UniProt Q92731); assay: ERE-TK-luc reporter transactivation assay in CV-1 cells, full-length hERb; assay type: cell-based; conditions: for Fold activation, Receptor ERRβ: Table 1 second block
T1 construct: Human ERα and ERβ were examined as full-length proteins using an estrogen receptor responsive reporter construct; expressed in transfected cells; host or cells: CV-1
Experimental: (§1) Human ERα and ERβ were examined as full-length proteins using an estrogen receptor responsive reporter construct.
(§2) Suitable reporter gene constructs are well known to skilled workers in the fields of biochemistry and molecular biology. […] Other vectors known in the art can be used in the methods of the present invention.
(§3) CV-1 cells for the activation assays were grown in Dulbecco's modified Eagle's medium supplemented with 10% resin charcoal-stripped fetal bovine serum, 50 U/ml penicillin G and 50 μg/ml streptomycin sulfate (DMEM-FBS) at 37° C. in 5% CO2. One day prior to transfection, cells were plated to 50-80% confluence using phenol red free DMEM-FBS.

[2] = test system: estrogen receptor responsive reporter construct; assay: Estrogen receptor responsive reporter in CV-1 cells without receptor (control of Table 1); assay type: cell-based; conditions: Table 1 second block
Experimental: as §1, §2, §3

[3] = target: T2, GAL-hERRa (human ERRα ligand binding domain fused to GAL4 DNA binding domain) (Homo sapiens, UniProt P11474); assay: GAL4 reporter transactivation assay in CV-1 cells, GAL-hERRa; assay type: cell-based; conditions: for Fold activation, GAL-hERRa + PGC-1a / Fold activation, GAL-hERRa / Fold activation, Receptor ERRα: CV-1; for Fold activation, GAL-hERRa + PGC-1a: reporter 0.42:vector 0.00875:PGC-1a 0.035; for Fold activation, GAL-hERRa: reporter 0.42:vector 0.00875, no PGC-1a; for Fold activation, Receptor ERRα: Table 1, reporter 0.42:receptor vector 0.035:PGC-1a 0.035
T2 construct: expressed in transfected cells; host or cells: CV-1
T2 sequence (P11474 193-421 limits assumed): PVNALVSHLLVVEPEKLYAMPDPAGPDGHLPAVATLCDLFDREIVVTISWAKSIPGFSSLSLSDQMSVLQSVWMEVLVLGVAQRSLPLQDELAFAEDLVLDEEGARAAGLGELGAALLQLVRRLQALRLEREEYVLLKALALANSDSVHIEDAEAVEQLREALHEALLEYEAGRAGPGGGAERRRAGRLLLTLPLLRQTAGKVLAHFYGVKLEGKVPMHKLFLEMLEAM

[4] = target: T3, GAL-L-hERRb (human ERRβ ligand binding domain fused to GAL4 DNA binding domain) (Homo sapiens, UniProt O95718); assay: GAL4 reporter transactivation assay in CV-1 cells, GAL-L-hERRb; assay type: cell-based; conditions: for Fold activation, GAL-L-hERRb + PGC-1a / Fold activation, GAL-L-hERRb / Fold activation, Receptor ERRβ: CV-1; for Fold activation, GAL-L-hERRb + PGC-1a: reporter 0.42:vector 0.00875:PGC-1a 0.035; for Fold activation, GAL-L-hERRb: reporter 0.42:vector 0.00875, no PGC-1a; for Fold activation, Receptor ERRβ: Table 1, reporter 0.42:receptor vector 0.035:PGC-1a 0.035
T3 construct: expressed in transfected cells; host or cells: CV-1
T3 sequence (O95718 208-432 limits assumed): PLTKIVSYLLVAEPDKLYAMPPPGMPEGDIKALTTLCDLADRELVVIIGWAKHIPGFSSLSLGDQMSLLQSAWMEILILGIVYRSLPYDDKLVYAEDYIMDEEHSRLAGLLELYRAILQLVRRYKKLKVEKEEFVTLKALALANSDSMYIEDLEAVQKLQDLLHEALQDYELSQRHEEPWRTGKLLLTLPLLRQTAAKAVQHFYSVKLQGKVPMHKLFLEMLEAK

[5] = target: T4, HRHN-GAL (yeast GAL4 DNA binding domain without receptor sequences) (Saccharomyces cerevisiae, UniProt P04386); assay: GAL4 reporter transactivation assay in CV-1 cells, control vector without receptor; assay type: cell-based, monkey; conditions: for Fold activation, HRHN-GAL: reporter 0.42:vector 0.00875, no PGC-1a
T4 construct: expressed in transfected cells; host or cells: CV-1
T4 sequence (P04386 1-147): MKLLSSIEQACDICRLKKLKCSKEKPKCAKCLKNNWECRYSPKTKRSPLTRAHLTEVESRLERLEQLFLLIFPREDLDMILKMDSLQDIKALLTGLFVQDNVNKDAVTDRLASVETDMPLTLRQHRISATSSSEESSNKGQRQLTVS

T1 sequence (Q92731 whole entry): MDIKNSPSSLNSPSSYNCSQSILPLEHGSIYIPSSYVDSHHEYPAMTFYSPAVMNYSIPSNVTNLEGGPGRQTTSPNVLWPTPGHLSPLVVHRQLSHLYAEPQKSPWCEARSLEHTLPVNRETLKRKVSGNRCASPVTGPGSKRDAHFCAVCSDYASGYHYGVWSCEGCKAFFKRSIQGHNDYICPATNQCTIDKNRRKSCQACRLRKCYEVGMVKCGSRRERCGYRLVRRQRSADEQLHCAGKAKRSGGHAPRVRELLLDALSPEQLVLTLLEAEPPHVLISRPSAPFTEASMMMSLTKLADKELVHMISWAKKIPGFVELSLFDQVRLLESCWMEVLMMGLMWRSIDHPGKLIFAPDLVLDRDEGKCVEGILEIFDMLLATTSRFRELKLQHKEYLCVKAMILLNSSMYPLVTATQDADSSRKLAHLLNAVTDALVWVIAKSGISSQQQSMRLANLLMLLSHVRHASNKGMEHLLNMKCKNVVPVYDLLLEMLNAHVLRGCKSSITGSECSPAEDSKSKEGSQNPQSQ

Compound: CCN(CC)c1ccc(C=NNC(=O)c2ccc(O)cc2)cc1 [DY131, 4-Hydroxy-benzoic acid (4-diethylamino-benzylidene)-hydrazide]
- Activity on ERβ (activate or inhibit) ([1]; CV-1 reporter assay): failed to activate or inhibit
- Fold activation, Receptor ERRβ ([1]; CV-1, 3 μM): 1.1 fold
- Fold activation, Receptor ERRβ ([1]; CV-1, 10 μM): 1.0 fold
- Fold activation, Receptor ERRβ ([1]; CV-1, 30 μM): 1.2 fold
- Fold Activation, ERE-TK-luc, hERb ([1]; Table 7, CV-1, drug conc 30 μM): 1.19 fold
- Activation of ERb ([1]; specificity for ERRs): do not activate
- Fold activation, Receptor — (second block) ([2]; 3 μM): 1.0 fold
- Fold activation, Receptor — (second block) ([2]; 10 μM): 1.1 fold
- Fold activation, Receptor — (second block) ([2]; 30 μM): 1.0 fold
- Fold activation, GAL-hERRa + PGC-1a ([3]; 0.3 μM): 1.69 fold
- Fold activation, GAL-hERRa + PGC-1a ([3]; 1 μM): 2.07 fold
- Fold activation, GAL-hERRa + PGC-1a ([3]; 3 μM (first 3 μM column)): 2.43 fold
- Fold activation, GAL-hERRa + PGC-1a ([3]; 3 μM (second 3 μM column)): 2.47 fold
- Fold activation, GAL-hERRa + PGC-1a ([3]; 10 μM): 3.75 fold
- Fold activation, GAL-hERRa + PGC-1a ([3]; 30 μM): 3.31 fold
- Fold activation, GAL-hERRa ([3]; 0.3 μM): 1.10 fold
- Fold activation, GAL-hERRa ([3]; 1 μM): 0.96 fold
- Fold activation, GAL-hERRa ([3]; 3 μM (first 3 μM column)): 1.55 fold
- Fold activation, GAL-hERRa ([3]; 3 μM (second 3 μM column)): 1.57 fold
- Fold activation, GAL-hERRa ([3]; 10 μM): 1.44 fold
- Fold activation, GAL-hERRa ([3]; 30 μM): 1.87 fold
- Fold activation, Receptor ERRα ([3]; 3 μM): 1.5 fold
- Fold activation, Receptor ERRα ([3]; 10 μM): 1.7 fold
- Fold activation, Receptor ERRα ([3]; 30 μM): 1.6 fold
- Activation of the reporter construct for ERRα ([3]; Table 1 conditions (reporter:Gal-ERR:PGC-1a=0.4:0.035:0.035), any of the concentrations tested): failed to activate
- Activation of the reporter construct for ERRα ([3]; different assay conditions (reporter plasmid:Gal-ERR:PGC-1a=0.4:0.00875:0.035), Table 2): activated
- Activation of ERRα ([3]; in the presence of PGC-1a): can activate
- Fold activation, GAL-L-hERRb + PGC-1a ([4]; 0.3 μM): 1.27 fold
- Fold activation, GAL-L-hERRb + PGC-1a ([4]; 1 μM): 1.19 fold
- Fold activation, GAL-L-hERRb + PGC-1a ([4]; 3 μM (first 3 μM column)): 1.80 fold
- Fold activation, GAL-L-hERRb + PGC-1a ([4]; 3 μM (second 3 μM column)): 2.02 fold
- Fold activation, GAL-L-hERRb + PGC-1a ([4]; 10 μM): 2.45 fold
- Fold activation, GAL-L-hERRb + PGC-1a ([4]; 30 μM): 2.52 fold
- Fold activation, GAL-L-hERRb ([4]; 0.3 μM): 0.84 fold
- Fold activation, GAL-L-hERRb ([4]; 1 μM): 1.05 fold
- Fold activation, GAL-L-hERRb ([4]; 3 μM (first 3 μM column)): 1.26 fold
- Fold activation, GAL-L-hERRb ([4]; 3 μM (second 3 μM column)): 1.15 fold
- Fold activation, GAL-L-hERRb ([4]; 10 μM): 2.14 fold
- Fold activation, GAL-L-hERRb ([4]; 30 μM): 2.46 fold
- Fold activation, Receptor ERRβ ([4]; 3 μM): 1.9 fold
- Fold activation, Receptor ERRβ ([4]; 10 μM): 3.1 fold
- Fold activation, Receptor ERRβ ([4]; 30 μM): 3.8 fold
- Fold activation of ERRβ ([4]; Table 1 conditions, concentrations of 10-30 μM): 3-4 fold
- Activation of ERRβ ([4]; in the presence of PGC-1a): can activate
- Fold activation, Receptor — (first block) ([5]; Table 1, reporter 0.42:receptor vector 0.035:PGC-1a 0.035, 3 μM): 0.8 fold
- Fold activation, Receptor — (first block) ([5]; Table 1, reporter 0.42:receptor vector 0.035:PGC-1a 0.035, 10 μM): 0.7 fold
- Fold activation, Receptor — (first block) ([5]; Table 1, reporter 0.42:receptor vector 0.035:PGC-1a 0.035, 30 μM): 0.9 fold
- Fold activation, HRHN-GAL ([5]; 0.3 μM): 1.03 fold
- Fold activation, HRHN-GAL ([5]; 1 μM): 0.94 fold
- Fold activation, HRHN-GAL ([5]; 3 μM (first 3 μM column)): 0.74 fold
- Fold activation, HRHN-GAL ([5]; 3 μM (second 3 μM column)): 0.74 fold
- Fold activation, HRHN-GAL ([5]; 10 μM): 0.77 fold
- Fold activation, HRHN-GAL ([5]; 30 μM): 0.79 fold
- Fold activation, HRHN-GAL + PGC-1a ([5]; reporter 0.42:vector 0.00875:PGC-1a 0.035, 0.3 μM): 1.00 fold
- Fold activation, HRHN-GAL + PGC-1a ([5]; reporter 0.42:vector 0.00875:PGC-1a 0.035, 1 μM): 0.65 fold
- Fold activation, HRHN-GAL + PGC-1a ([5]; reporter 0.42:vector 0.00875:PGC-1a 0.035, 3 μM (first 3 μM column)): 0.72 fold
- Fold activation, HRHN-GAL + PGC-1a ([5]; reporter 0.42:vector 0.00875:PGC-1a 0.035, 3 μM (second 3 μM column)): 1.09 fold
- Fold activation, HRHN-GAL + PGC-1a ([5]; reporter 0.42:vector 0.00875:PGC-1a 0.035, 10 μM): 0.69 fold
- Fold activation, HRHN-GAL + PGC-1a ([5]; reporter 0.42:vector 0.00875:PGC-1a 0.035, 30 μM): 0.81 fold
